Results taken from patent publication EP0570196B1, “Oxime derivatives” (ZENECA LIMITED, priority 1992, dated 1993).

How the values were obtained:
5-LO [1] = assay: Test c): in vivo zymosan-induced LTB₄ liberation in a subcutaneous air pouch of male rats; conditions: rat air pouch, 3 hours
5-LO [2] = target: T1, 5-LO (Homo sapiens, UniProt P09917); assay: Test a): in vitro heparinised human blood challenged with calcium ionophore A23187, radioimmunoassay of LTB₄; format: cell-based; conditions: heparinised human blood, A23187 challenge; read-out: IC₅₀ against LTB₄ in test a)
T1 construct: incubating a test compound with heparinised human blood, prior to challenge with the calcium ionophore A23187; endogenous in cells; host or cells: heparinised human whole blood (blood cells)
T1 sequence (P09917 1-674): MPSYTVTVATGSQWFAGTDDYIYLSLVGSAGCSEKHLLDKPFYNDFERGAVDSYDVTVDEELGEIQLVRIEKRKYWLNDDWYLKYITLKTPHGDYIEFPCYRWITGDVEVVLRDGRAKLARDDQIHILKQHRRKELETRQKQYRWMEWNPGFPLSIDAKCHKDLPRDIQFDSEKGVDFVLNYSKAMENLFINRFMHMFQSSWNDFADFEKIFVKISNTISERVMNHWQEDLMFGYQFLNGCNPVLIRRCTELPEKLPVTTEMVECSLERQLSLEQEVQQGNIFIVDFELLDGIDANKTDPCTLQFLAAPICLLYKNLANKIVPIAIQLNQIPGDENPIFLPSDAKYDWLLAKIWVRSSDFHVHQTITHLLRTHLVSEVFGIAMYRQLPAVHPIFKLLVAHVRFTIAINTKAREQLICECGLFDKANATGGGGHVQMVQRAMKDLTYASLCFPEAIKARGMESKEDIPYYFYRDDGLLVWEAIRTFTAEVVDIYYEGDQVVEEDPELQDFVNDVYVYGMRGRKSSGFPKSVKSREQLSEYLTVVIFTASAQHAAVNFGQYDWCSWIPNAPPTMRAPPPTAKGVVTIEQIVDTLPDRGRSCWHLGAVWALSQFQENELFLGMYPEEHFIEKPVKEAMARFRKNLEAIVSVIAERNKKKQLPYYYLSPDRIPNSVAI
Excerpt: As stated previously, the compounds of the formula I are inhibitors of the enzyme 5-LO. […] J. Pharmacol., 1985, 84, 34P) which involve the use of a protein-LTB₄ conjugate produced using the procedure of Young et alia (Prostaglandins, 1983, 26(4), 605-613). The effects of a test compound on the enzyme cyclooxygenase (which is involved in the alternative metabolic pathway for arachidonic acid and gives rise to prostaglandins, thromboxanes and related metabolites) may be measured at the same time using the specific radioimmunoassay for thromboxane B₂(TxB₂) described by Carey and Forder (see above). This test provides an indication of the effects of a test compound against 5-LO and also cyclooxygenase in the presence of blood cells and proteins. It permits the selectivity of the inhibitory effect on 5-LO or cyclooxygenase to be assessed. • b) An ex vivo assay system, which is a variation of test a) above, involving administration to a group of rats of a test compound (usually orally as the suspension produced when a solution of the test compound in dimethylsulphoxide is added to carboxymethylcellulose), blood collection, heparinisation, challenge with A23187 and radioimmunoassay of LTB₄ and TxB₂. […]

Row | Structure (SMILES) | oral ED₅₀ versus LTB₄ in test c) (5-LO [1]) | IC50 (5-LO [2]) [nM]
1 | COC1(c2cc(F)cc(Sc3ccc(CON=C(C)C)cc3)c2)CCOCC1 [Example 1, acetone 0-{4-[5-fluoro-3-(4-methoxytetrahydropyran-4-yl)phenylthio]benzyl}oxime] | approximately 1 mg/kg | 150
2 | COC1(c2cc(F)cc(Sc3ccc(C(C)ON=C(C)C)cc3)c2)CCOCC1 (stereo not drawn) [Example 2, acetone 0-{4-[5-fluoro-3-(4-methoxytetrahydropyran-4-yl)phenylthio)-α-methylbenzyl}oxime] | approximately 1.5 mg/kg | 90
